In ChEMBL document CHEMBL4043146, “Macrocyclic factor XIa inhibitors” (Bioorg Med Chem Lett, 2017):

What was measured:
Plasma = assay: Anticoagulant activity in human plasma assessed as concentration required to produce 50% increase in activated partial thromboplastin time relative to baseline control; type: functional
Coagulation factor XI = Coagulation factor XI (Homo sapiens, UniProt P03951); assay: Inhibition of human F11a using peptide substrate by spectrophotometry
Prothrombin = Prothrombin (Homo sapiens, UniProt P00734); assay: Binding affinity to F2a (unknown origin)
Coagulation factor VII = molecular target: T1, Coagulation factor VII (Homo sapiens, UniProt P08709); assay: Binding affinity to F7a (unknown origin)
T1 sequence (P08709 whole entry): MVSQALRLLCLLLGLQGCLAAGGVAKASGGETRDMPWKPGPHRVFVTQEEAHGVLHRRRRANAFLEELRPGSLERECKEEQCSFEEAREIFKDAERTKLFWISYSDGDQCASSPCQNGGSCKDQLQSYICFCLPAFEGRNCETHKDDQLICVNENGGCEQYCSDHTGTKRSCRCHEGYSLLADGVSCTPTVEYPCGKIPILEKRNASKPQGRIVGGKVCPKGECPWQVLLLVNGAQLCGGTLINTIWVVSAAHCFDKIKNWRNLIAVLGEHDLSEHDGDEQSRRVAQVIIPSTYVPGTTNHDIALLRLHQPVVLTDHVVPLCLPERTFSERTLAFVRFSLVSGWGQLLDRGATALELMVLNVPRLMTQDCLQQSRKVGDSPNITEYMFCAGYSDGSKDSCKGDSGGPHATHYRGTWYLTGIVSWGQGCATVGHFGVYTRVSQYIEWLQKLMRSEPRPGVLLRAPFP

[1] = Binding affinity to trypsin (unknown origin); parameters: species or system Homo sapiens
Coagulation factor X = Coagulation factor X (Homo sapiens, UniProt P00742); assay: Binding affinity to F10a (unknown origin)
Chain of Coagulation factor X (P00742 41-179 limits assumed): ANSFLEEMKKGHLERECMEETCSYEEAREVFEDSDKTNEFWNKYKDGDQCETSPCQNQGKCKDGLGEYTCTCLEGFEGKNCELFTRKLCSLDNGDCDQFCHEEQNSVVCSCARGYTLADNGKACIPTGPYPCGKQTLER
Chain of Coagulation factor X (P00742 235-488 limits assumed): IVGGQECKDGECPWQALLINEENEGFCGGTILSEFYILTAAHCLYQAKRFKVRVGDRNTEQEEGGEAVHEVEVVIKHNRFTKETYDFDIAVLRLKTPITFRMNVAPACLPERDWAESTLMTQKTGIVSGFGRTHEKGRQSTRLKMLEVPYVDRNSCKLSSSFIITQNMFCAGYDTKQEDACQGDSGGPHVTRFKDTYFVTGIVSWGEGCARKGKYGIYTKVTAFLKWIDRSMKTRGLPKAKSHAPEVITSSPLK

Chain of Coagulation factor XI (P03951 19-387 limits assumed): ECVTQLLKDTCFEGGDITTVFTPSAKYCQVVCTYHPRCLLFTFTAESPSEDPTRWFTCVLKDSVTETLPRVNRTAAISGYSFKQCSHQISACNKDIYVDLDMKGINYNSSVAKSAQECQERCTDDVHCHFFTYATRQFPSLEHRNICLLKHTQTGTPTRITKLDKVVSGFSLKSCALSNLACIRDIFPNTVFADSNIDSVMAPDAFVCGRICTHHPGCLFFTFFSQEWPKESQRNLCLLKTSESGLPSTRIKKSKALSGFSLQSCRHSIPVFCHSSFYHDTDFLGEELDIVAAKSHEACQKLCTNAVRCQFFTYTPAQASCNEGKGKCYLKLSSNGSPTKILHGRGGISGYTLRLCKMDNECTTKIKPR
Chain of Coagulation factor XI (P03951 388-625 limits assumed): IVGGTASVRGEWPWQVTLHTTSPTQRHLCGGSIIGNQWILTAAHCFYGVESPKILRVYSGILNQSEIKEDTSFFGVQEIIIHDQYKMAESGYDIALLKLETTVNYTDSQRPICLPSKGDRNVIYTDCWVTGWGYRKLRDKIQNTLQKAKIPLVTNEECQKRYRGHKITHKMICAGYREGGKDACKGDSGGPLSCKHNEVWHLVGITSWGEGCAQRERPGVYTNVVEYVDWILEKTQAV

| Compound | Activity (Plasma) | Ki (Coagulation factor XI) | also measured |
| --- | --- | --- | --- |
| COC(=O)Nc1ccc2c(c1)NC(=O)CCc1cccc(c1)C[C@H](NC(=O)/C=C/c1cc(Cl)ccc1-n1cnnn1)c1nc-2c[nH]1 | 2.1 µM | 1.5 nM |  |
| COC(=O)Nc1ccc2c(c1)CCCCc1cccc(c1)C[C@H](NC(=O)/C=C/c1cc(Cl)ccc1-n1cnnn1)c1nc-2c[nH]1 | 23 µM | 17 nM |  |
| COC(=O)Nc1ccc2c(c1)CNC(=O)c1cccc(c1)C[C@H](NC(=O)/C=C/c1cc(Cl)ccc1-n1cnnn1)c1nc-2c[nH]1 |  | 500 nM |  |
| COC(=O)Nc1ccc2c(c1)NC(=O)CCc1cc(ccc1F)C[C@H](NC(=O)/C=C/c1cc(Cl)ccc1-n1cnnn1)c1nc-2c[nH]1 | 1.4 µM | 0.53 nM |  |
| COC(=O)Nc1ccc2c(c1)CNC(=O)c1ccc(cc1)C[C@H](NC(=O)/C=C/c1cc(Cl)ccc1-n1cnnn1)c1nc-2c[nH]1 |  | 6400 nM |  |
| COC(=O)Nc1ccc2c(c1)NC(=O)CCc1nc(ccc1F)C[C@H](NC(=O)/C=C/c1cc(Cl)ccc1-n1cnnn1)c1nc-2c[nH]1 | 0.27 µM | 0.02 nM | Ki (Prothrombin): > 13000 nM; Ki (Coagulation factor VII): 1100 nM; Ki [1]: 670 nM; Ki (Coagulation factor X): 1400 nM |
| COC(=O)Nc1ccc2c(c1)CCCCc1cccc(c1)C[C@H](NC(=O)/C=C/c1cc(Cl)ccc1-n1cnnn1)c1nc-2c(Cl)[nH]1 | 34 µM |  |  |
| COC(=O)Nc1ccc2c(c1)NC(=O)CCc1cccc(n1)C[C@H](NC(=O)/C=C/c1cc(Cl)ccc1-n1cnnn1)c1nc-2c[nH]1 | 0.27 to 0.4 µM | 0.32 nM |  |
| COC(=O)Nc1ccc2c(c1)CNC(=O)c1cccc(c1)C[C@H](NC(=O)/C=C/c1cc(Cl)ccc1-n1cnnn1)c1nc-2c(Cl)[nH]1 |  | 92 nM |  |
